Test results reported in patent US20190040106A1, “USE OF HUMAN DERIVED IMMUNOSUPPRESSIVE PROTEINS AND PEPTIDES AS MEDICAMENTS” (AIMVION A/S, priority 2015, published 2019).

What was measured:
[1] = test system: murine model of collagen-induced arthritis; assay: Collagen-induced arthritis model (CIA model), Example 9; assay type: in vivo, female DBA/1J mice; parameters: key to terminal individual paw score, Front right, group mean / terminal individual paw score, Front left, group mean / terminal individual paw score, Rear right, group mean / terminal individual paw score, Rear left, group mean: paw score 0 = no arthritis to 4 = severe arthritis of entire paw; key to Arthritic Index (AI), group mean: sum of four paw scores, each 0 (no arthritis) to 4 (severe); max 16; conditions: for Arthritic Index (AI), group mean: peptide 4 μg/mouse, methotrexate 3 mg/kg, subcutaneous
Description: The CIA model is the “standard” animal model for evaluation of anti-arthritic activity based on immunization with bovine collagen to develop antibodies against bone and cartilage.
The aim was to determine anti-arthritic dosing paradigm in a murine model of collagen-induced arthritis. This study was carried out in female DBA/1J mice. The effect of the Env59 ISU peptides on disease development is compared with a methotrexate MTX (positive control) or saline treated control group.
Day 0: The mice were weighted and injected subcutaneously at the nape of the neck as in the table below (table 3):
(§1) An hour later, the mice were injected subcutaneously at the base of the tail with 50 μl of the collagen/CFA emulsion.
(§2) Mice were scored for signs of arthritis every Monday, Wednesday, and Friday during the next 41 days as follows: • Each paw receives a score • 0=no visible effects of arthritis • 1=edema and/or erythema of 1 digit • 2=edema and/or erythema of 2 digits • 3=edema and/or erythema of more than 2 digits • 4=severe arthritis of entire paw and digits
(§3) The Arthritic Index (AI) was calculated by the addition of individual paw scores.
(§4) Day 42 The mice were weighted and scored for signs of arthritis.

[2] = test system: murine model of collagen-induced arthritis; assay: Collagen-induced arthritis model (CIA model), study number 2, Example 12; assay type: in vivo, female DBA/1J mice; parameters: key to Terminal Individual Paw Score, Front right, group mean / Terminal Individual Paw Score, Front left, group mean / Terminal Individual Paw Score, Rear right, group mean / Terminal Individual Paw Score, Rear left, group mean: 0 = no arthritis, 4 = severe arthritis of entire paw; key to Arthritic Index (AI), group mean: sum of four paw scores, each 0 = none to 4 = severe; conditions: for Arthritic Index (AI), group mean: peptides 4 μg/mouse, methotrexate 1 mg/kg, subcutaneous
Description: The CIA model as described in an Example 9 is the “standard” animal model for evaluation of anti-arthritic activity based on immunization with bovine collagen to develop antibodies against bone and cartilage.
Here we present data on investigating in vivo effect of the HERV-Env59, SG#2, and SG#5 and SG#15 peptides. The aim was to determine anti-arthritic dosing paradigm in a murine model of collagen-induced arthritis. This study was carried out in female DBA/1J mice. The effect of the Env59 ISU peptide, SG#2, SG#5 or SG#15 peptide on disease development is compared with a methotrexate MTX (positive control) or saline treated control group.
Day 0: The mice were weighted and injected subcutaneously at the nape of the neck as in the table below (table 6):
as §1, §2, §3, §4

CN(Cc1cnc2nc(N)nc(N)c2n1)c1ccc(C(=O)N[C@@H](CCC(=O)O)C(=O)O)cc1 [Methotrexate, reference compound]
0: terminal individual paw score, Front left, group mean ([1]; day 42) | terminal individual paw score, Front right, group mean ([1]; day 42) | terminal individual paw score, Rear left, group mean ([1]; day 42) | terminal individual paw score, Rear right, group mean ([1]; day 42) | Arthritic Index (AI), group mean ([1]; study day 21) | Arthritic Index (AI), group mean ([1]; study day 22) | Arthritic Index (AI), group mean ([1]; study day 25) | Arthritic Index (AI), group mean ([1]; study day 27) | Arthritic Index (AI), group mean ([1]; study day 29) | Arthritic Index (AI), group mean ([1]; study day 32) | Arthritic Index (AI), group mean ([1]; study day 34) | Arthritic Index (AI), group mean ([1]; study day 36) | Arthritic Index (AI), group mean ([1]; study day 38) | Arthritic Index (AI), group mean ([1]; study day 41) | Arthritic Index (AI), group mean ([1]; study day 42) | Terminal Individual Paw Score, Front left, group mean ([2]; day 42) | Terminal Individual Paw Score, Front right, group mean ([2]; day 42) | Terminal Individual Paw Score, Rear left, group mean ([2]; day 42) | Terminal Individual Paw Score, Rear right, group mean ([2]; day 42) | Arthritic Index (AI), group mean ([2]; study day 14) | Arthritic Index (AI), group mean ([2]; study day 21) | Arthritic Index (AI), group mean ([2]; study day 25) | Arthritic Index (AI), group mean ([2]; study day 27) | Arthritic Index (AI), group mean ([2]; study day 29) | Arthritic Index (AI), group mean ([2]; study day 32) | Arthritic Index (AI), group mean ([2]; study day 34) | Arthritic Index (AI), group mean ([2]; study day 36) | Arthritic Index (AI), group mean ([2]; study day 39) | Arthritic Index (AI), group mean ([2]; study day 41) | Arthritic Index (AI), group mean ([2]; study day 42)
